{
  "source": "patent US8003636B2",
  "about": "“Certain crystalline diphenylazetidinone hydrates, pharmaceutical compositions thereof and methods for their use” (Sanofi-Aventis Deutschland GmbH, priority 2007, dated 2011)",
  "key": {"[1]": {"assay": "Test of the dissolution rate (USP 27 paddle apparatus)", "format": "physicochemical", "conditions": "for release [%]: 20 mg in 1000 ml 0.1% aqueous SDS, 37° C., 75 rpm paddle, mean of three", "protocol": "The dissolution rate of the crystalline hydrates of the formula I was tested as follows: […]\nThe dissolution rate is measured in a standard apparatus (paddle) according to the US Pharmacopeia (USP 27) at 37° C. The stirrer speed is 75 rpm.\n20 mg of the substance to be examined are added to 1000 ml of a 0.1% strength aqueous sodium dodecylsulfate (SDS) solution. After 15, 30, 45 and 60 minutes, samples of 20 ml are taken.\nThe portion dissolved is determined photometrically at 256 nm using a comparison solution. The measurement is carried out in 10 mm cuvettes using, for example, a Perkin Elmer Lambda 25 photometer. The samples are measured directly after removal of the samples. In each case, a mean is calculated from three determinations.\nThe comparison solution is prepared as follows: 2-3 mg of the batch used are dissolved in 2 ml of dimethylformamide in a measuring flask. The volume is then made up to 100.0 ml using 0.1% strength SDS solution.\nThe amorphous compound of the formula I used in Example 2 was compared to the crystalline compound of the formula I obtained in the same Example 2."}, "[2]": {"assay": "Water content on storage at 23° C./60% relative atmospheric humidity", "format": "physicochemical", "conditions": "for Water content (%): previously dried to 0.8% water", "protocol": "The hydrate obtained in Example 2 was dried under reduced pressure at 50° C. until a water content of 0.8% had been reached. The crystalline product was stored at 23° C./60% relative atmospheric humidity."}, "Cholesterol absorption": {"test_system": "Cholesterol absorption", "assay": "Effect on cholesterol absorption + 3H-taurocholic acid elimination via fecal elimination", "format": "in vivo, NMRI mice", "conditions": "dose which doubles fecal elimination of TCA or cholesterol vs control group, peroral, feces collected over 24 h", "protocol": "Effect on Cholesterol Absorption+^3H-Taurocholic Acid Elimination via Fecal Elimination in Mice, Rats or Hamsters\nNMRI mice, Wistar rats or Golden Syrian hamsters (in groups of n=4-6) are kept with a standard diet (Altromin, Lage (Lippe), Germany) in metabolic cages. The afternoon prior to the administration of the radioactive tracers (^14C-cholesterol) the feed is withdrawn, and the animals are adapted to the cage wires.\nIn addition, 24 hours prior to the peroral administration of the test meal (^14C-cholesterol in Intralipid® 20, Pharmacia-Upjohn), the animals are labelled s.c. with ^3H-TCA (taurocholic acid) (for example 1 μCi/mouse to 5 μCi/rat).\nCholesterol absorption test: 0.25 ml/mouse Intralipid® 20 (Pharmacia-Upjohn) (spiked with 0.25 μCi ^14C-cholesterol in 0.1 mg of cholesterol) is administered perorally using a stomach tube. […]\nThe feces are collected over a period of 24 h: the fecal elimination of ^14C-cholesterol and 3H-taurocholic acid (TCA) is determined after 24 hours. […]\nThe total weight is determined, the sample is made up with water to a defined volume and then homogenized, an aliquot is evaporated to dryness and incinerated in an Oximate (Model 307, Packard, for the incineration of radioactively labelled samples): the amount of radioactive ^3H—H2O und ^14C—CO2 is extrapolated to the amount of ^3H-taurocholic acid or ^14C-cholesterol eliminated (dual isotope technique). […]"}, "[3]": {"conditions": "storage time 0.5 h at 23° C./60% relative humidity"}, "[4]": {"conditions": "storage time 2 h at 23° C./60% relative humidity"}, "[5]": {"conditions": "storage time 4 h at 23° C./60% relative humidity"}, "[6]": {"conditions": "storage time 6 h at 23° C./60% relative humidity"}, "[7]": {"conditions": "storage time 24 h at 23° C./60% relative humidity"}},
  "data": [
    {"smiles": "COc1ccc([C@@H]2[C@@H](CC[C@H](O)c3ccc(F)cc3)C(=O)N2c2ccc(CNC(=O)CCCCCCCCCCC(=O)NC[C@H](O)[C@@H](O)[C@H](O)[C@H](O)CO)cc2)cc1", "note": "[Amorphous compound of the formula II, reference compound]", "values": [
      {"measurement": "release [%]", "setting": "[1]; 15 min", "value": 30.0, "unit": "%"},
      {"measurement": "release [%]", "setting": "[1]; 30 min", "value": 41.3, "unit": "%"},
      {"measurement": "release [%]", "setting": "[1]; 45 min", "value": 44.7, "unit": "%"},
      {"measurement": "release [%]", "setting": "[1]; 60 min", "value": 46.2, "unit": "%"}
    ]},
    {"smiles": "COc1ccc([C@@H]2[C@@H](CC[C@H](O)c3ccc(F)cc3)C(=O)N2c2ccc(CNC(=O)CCCCCCCCCCC(=O)NC[C@H](O)[C@@H](O)[C@H](O)[C@H](O)CO)cc2)cc1", "note": "[Example 6]", "values": [
      {"measurement": "n (hydrate water per formula I)", "setting": "[2]; [3]", "value": 0.5},
      {"measurement": "Water content (%)", "setting": "[2]; [3]", "value": 1.1, "unit": "%"},
      {"measurement": "n (hydrate water per formula I)", "setting": "[2]; [4]", "value": 1.09},
      {"measurement": "Water content (%)", "setting": "[2]; [4]", "value": 2.4, "unit": "%"},
      {"measurement": "n (hydrate water per formula I)", "setting": "[2]; [5]", "value": 1.14},
      {"measurement": "Water content (%)", "setting": "[2]; [5]", "value": 2.5, "unit": "%"},
      {"measurement": "n (hydrate water per formula I)", "setting": "[2]; [6]", "value": 1.09},
      {"measurement": "Water content (%)", "setting": "[2]; [6]", "value": 2.4, "unit": "%"},
      {"measurement": "n (hydrate water per formula I)", "setting": "[2]; [7]", "value": 1.14},
      {"measurement": "Water content (%)", "setting": "[2]; [7]", "value": 2.5, "unit": "%"}
    ]},
    {"smiles": "COc1ccc([C@@H]2[C@@H](CC[C@H](O)c3ccc(F)cc3)C(=O)N2c2ccc(CNC(=O)CCCCCCCCCCC(=O)NC[C@H](O)[C@@H](O)[C@H](O)[C@H](O)CO)cc2)cc1", "note": "[Example 2]", "values": [
      {"measurement": "release [%]", "setting": "[1]; 15 min, listed as Crystalline compound of the formula I", "value": 88.0, "unit": "%"},
      {"measurement": "release [%]", "setting": "[1]; 30 min, listed as Crystalline compound of the formula I", "value": 90.0, "unit": "%"},
      {"measurement": "release [%]", "setting": "[1]; 45 min, listed as Crystalline compound of the formula I", "value": 94.6, "unit": "%"},
      {"measurement": "release [%]", "setting": "[1]; 60 min, listed as Crystalline compound of the formula I", "value": 98.7, "unit": "%"},
      {"measurement": "amount in solution relative to the amorphous active ingredient", "setting": "[1]; after 15 minutes", "value": "almost three times the amount of the amorphous active ingredient"},
      {"measurement": "ED200 value (fecal elimination [mg/mouse])", "setting": "Cholesterol absorption", "value": 0.01, "unit": "mg/mouse"}
    ]}
  ]
}
